Data on two molecules can be found in patent US20210220331A1, “INHIBITORS OF IRES-MEDIATED PROTEIN SYNTHESIS” (The Regents of the University of California, priority 2016, published 2021).

The structures appear in SMILES notation. Where two headings read alike, the source gives them in different places.

Series [1] concerns LN229 cells. Kind of series: Combination analysis with PP242 (XTT, combination index) in LN229. In kind it is cell-based. The note with it: combination of PP242 and analog, CI=1.0 dose additive, CI<0.5 synergy, CI<0.3 strong synergy. The text has this: Fold decrease in either PP242-induced cyclin D1 or c-MYC IRES activity in LN229 relative to values obtained with the parent compound C11 are shown for each analog. […] CI=1.0 (dose additive), CI<0.5 (synergy), CI<0.3 (strong synergy).
The structure-activity relationships (SAR) for C11 and related compounds were investigated by synthesizing and testing the analogs listed in Table 1. […] The degree of apoptotic cell death following co-treatment with analog and PP242 was also monitored.

The test system of series [2] is LN229 cells. The series is described as follows: Apoptosis via Annexin V staining in LN229. In kind it is cell-based. The note with it: LN229 cotreated with PP242 (50 nM) and analog (100 nM), 24 h.
For series [3], the target named is T1, hnRNP A1 (Homo sapiens, UniProt P09651).
T1 construct: pGEX-2T/hnRNP A1 (full length hnRNP A1) and pGEX-2T/UP1 GST fusions; made in house; host or cells: HEK293 cells
T1 sequence (P09651 whole entry, the tested form may be a part): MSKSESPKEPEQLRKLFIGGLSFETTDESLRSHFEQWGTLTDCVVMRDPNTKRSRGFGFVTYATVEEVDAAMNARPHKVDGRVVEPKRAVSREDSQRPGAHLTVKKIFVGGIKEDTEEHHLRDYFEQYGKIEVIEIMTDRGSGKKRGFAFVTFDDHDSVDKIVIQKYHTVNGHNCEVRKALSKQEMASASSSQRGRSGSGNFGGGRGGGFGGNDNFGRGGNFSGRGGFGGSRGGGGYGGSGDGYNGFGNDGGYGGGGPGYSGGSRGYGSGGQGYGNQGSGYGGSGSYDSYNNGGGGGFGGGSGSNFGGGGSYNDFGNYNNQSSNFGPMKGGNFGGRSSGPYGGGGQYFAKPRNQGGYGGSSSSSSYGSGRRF
The series is described as follows: Photo-cross-linked inhibitor bead binding assay. The note with it: vs control beads, anti-GST immunoblot. As to the method: (§1) Photo-cross-linked C11 and IRES-J007 beads were prepared as previously described (25). Activated Sepharose beads were washed three times with 1 mM aqueous HCl followed by coupling solution (100 mM NaHCO3 and 50% dioxane mixture). A solution of photoaffinity linker in coupling solution was subsequently added to the beads and incubated at 37° C. for 2 h. After washing five times with coupling solution the beads were blocked and placed in a spin column and washed three times with water and methanol. The beads were subsequently irradiated in a UV cross-linker at 365 nm (4 J/cm2) and washed with methanol. Purified GST-tagged native or mutant hnRNP A1 proteins were added to 20 μl of C11 or J007 cross-linked or control uncross-linked beads. After incubating at 4° C. for 24 h, the beads were washed three times and bound proteins eluted in 10% SDS-PAGE sample buffer at 100° C. for 5 min. and the eluted proteins were resolved by SDS-PAGE and immunoblotted using GST antibodies.
(§2) The configurations with the most favorable binding energies were visualized using PyMOL v1.5.6. The electrostatic surface representation of the crystal structure of UP1 is shown with RNP residues of RRM1 and RRM2 labeled in blue. In the 90°-rotated model, the inhibitor interaction pocket is shown in yellow. The inset is a close-up of C11 and IRES-J007 binding to the potential binding site on UP1. Residues predicted to interact with the inhibitors are labeled. (B) Purified GST-tagged wild-type hnRNP A1 (A1) and mutant A1 (4ΔA1) proteins harboring alanine substitutions at all four potential binding sites (120, 123,124 and 171) were added to uncross-linked, C11 and J007-cross-linked beads. Isolated wild-type (A1) and mutant (4ΔA1) proteins were resolved by SDS-PAGE and silver-stained to monitor purity (top panels). The binding of A1 to control, C11 and J007 beads was detected by immunoblotting with GST antibodies (bottom panel). (C) Inhibition of basal IRES activity in 293T cells upon treatment with C11 or IRES-J007. IRES reporter activity was assessed following 24 h treatment with 50 nM concentrations of each inhibitor as indicated. The mean and +SD are shown for three independent experiments. (D) RNA-pull down assays utilizing biotinylated cyclin D1 or c-MYC IRES RNAs of 293T cell extracts treated with the inhibitors as in FIG. 2C.
(§3) To further examine how C11 and IRES-J007 inhibit hnRNP A1 function, used in silico docking analysis was used to create a potential model for the binding of these inhibitors to UP1. […] The purified proteins were then incubated with control, C11 or J007 beads and binding analyzed by immunoblotting using anti-GST antibodies. […]
A general note: Immunoblotting shows a protein as a band on a membrane.

In series [4] the target is T2, hnRNP A1 (Homo sapiens, UniProt P09651, D123A/H120A/N171A/Y124A).
T2 construct: pGEX-2T/hnRNP A1 (full length hnRNP A1) and pGEX-2T/UP1 GST fusions; made in house; host or cells: HEK293 cells
T2 sequence (P09651 whole entry H120A/D123A/Y124A/N171A, the tested form may be a part): as the sequence (P09651 whole entry, the tested form may be a part) above, with H120A, D123A, Y124A, N171A counted along it
Kind of series: Photo-cross-linked inhibitor bead binding assay. The note with it: alanine substitutions at 120, 123, 124 and 171. The procedure:
as §1, §2, §3

In a further series the test system is human cyclin D1 IRES. Kind of series: Dicistronic IRES mRNA reporter assay (firefly luciferase), cyclin D1 IRES. The format is cell-based. As to conditions: 293T cells, 50 nM, 24 h.
The next series can be described thus: Pharmacokinetics in mice. In kind it is in vivo. As to the method: The pharmacokinetic properties of IRES-J007 in mice were determined. […] IRES-J007 was ˜50% bioavailable following oral delivery with a serum half-life of approximately 30 hours.
The test system of series [5] is subcutaneous LN229 tumors.
Description: TUNEL staining of tumor sections was performed using the TACSXL DAB In Situ Apoptosis Detection kit (Trevigen) according to the manufacturer's instructions (19). […] Xenograft Studies-Xenografts of LN229 cells were performed in female C.B.-17-scid (Taconic) mice as previously described (14). Tumors were harvested at autopsy for Western blot analysis. Sections of paraffin-embedded tumors on slides were processed for immunohistochemistry as previously described (14,19). Statistical analysis was done with Student's t test and ANOVA models using Systat 13 (Systat Software, Chicago, Ill.). P values of less the 0.05 were considered significant.
Left panel, apoptotic cells were identified by TUNEL assays of sections prepared from harvested tumors at day 12 following initiation of treatment regimens. Data are expressed as the number of positive apoptotic bodies divided by high power field (hpf; 10-12 hpf/tumor). Values are means+S.D., *, P<0.05.
[6] abbreviates: combination PP242 50 mg/kg/d + IRES-J007 20 mg/kg/d.

For `COc1ccc(CN2C(=O)C(Cl)=C(Cl)C2=O)c(OC)c1` [Compound C11, reference compound], the “CI ED50, 1:100 (combination index)” value in the series with LN229 cells [1] is reported as 0.50. In addition, the “% Apoptosis (100 nM)” value in the series with LN229 cells [2] is recorded as 25.9%. Further, the “binding of native GST-tagged hnRNP A1 to inhibitor-cross-linked beads” value at hnRNP A1 [3] is on record as “bound”. Besides, at hnRNP A1 [4], the “amount of mutant hnRNP A1 (4ΔA1) bound to inhibitor beads relative to native hnRNP A1” value was “markedly reduced”. Moreover, the “basal cyclin D1 IRES activity” value in the series with human cyclin D1 IRES is “reduced IRES activity”.

The term AUC denotes concentration integrated over time. Read a low AUC as less exposure. Usually Cmax stands for the maximum level reached in the sampled fluid or tissue. As usually defined, the Tmax is the time from dosing to the highest level. By clearance is commonly meant the rate of elimination divided by the concentration. Low readings indicate inefficient removal, high ones efficient removal. By bioavailability is commonly meant the share of a dose that reaches the circulation, judged against a reference dose that is usually intravenous. For the molecule `COc1ccc(CN2C(=O)c3ccccc3C2=O)c(OC)c1` [IRES-J007, 2-((2,4-Dimethoxyphenyl)methyl)isoindoline-1,3-dione], the “CI ED50, 1:100 (combination index)” value with LN229 cells [1] was 0.42. Moreover, the “% Apoptosis (100 nM)” value in the series with LN229 cells [2] stood at 62.4%. Besides, the “binding of native GST-tagged hnRNP A1 to inhibitor-cross-linked beads” value on hnRNP A1 [3] is “bound”. Further, on hnRNP A1 [4], the “amount of mutant hnRNP A1 (4ΔA1) bound to inhibitor beads relative to native hnRNP A1” value is reported as “markedly reduced”. The AUC stood at 759 µg·h/mL in the series “Pharmacokinetics in mice” (mouse, plasma, 20 mg/kg, PO) and 1290 µg·h/mL in the series “Pharmacokinetics in mice” (mouse, plasma, IV). For the same molecule, the Cmax was 17.2 µg/mL in the series “Pharmacokinetics in mice” (mouse, plasma, 20 mg/kg, PO) and 284 µg/mL in “Pharmacokinetics in mice” (mouse, plasma, IV). Moreover, the Tmax in the series “Pharmacokinetics in mice” (mouse, plasma, 20 mg/kg, PO) was determined as 7.2 h; in “Pharmacokinetics in mice” (mouse, plasma, IV) it was 0.05 h. In addition, the half-life in “Pharmacokinetics in mice” (mouse, plasma, 20 mg/kg, PO, read-out: Half-life (T1/2 K10) (converted)) was 1640 min; in “Pharmacokinetics in mice” (mouse, plasma, IV, read-out: Half-life (T1/2 b) (converted)), 816 min; in the series “Pharmacokinetics in mice” (mouse, serum, oral delivery 20 mg/kg, read-out: serum half-life (converted)), around 1800 min. The molecule further had a clearance in “Pharmacokinetics in mice” (mouse, plasma, IV) of 152 mL/min/kg. Moreover, the bioavailability in “Pharmacokinetics in mice” (mouse, plasma, iv, read-out: Relative Bioavailability) is 100%; in “Pharmacokinetics in mice” (mouse, plasma, po, 20 mg/kg, PO, calculated based on AUC, read-out: Relative Bioavailability), 40.1%; in “Pharmacokinetics in mice” (mouse, plasma, po, 20 mg/kg, oral gavage 20 mg/kg, read-out: bioavailability following oral delivery), around 50%. Besides, the trough levels entry in the series “Pharmacokinetics in mice” (single 20 mg/kg dose) was “exceeded concentrations expected to block hnRNP A1 IRES activity”. Moreover, the “overall survival compared to either monotherapy” value in series [5] (setting [6]) was “significantly extended”. Besides, the tumor growth delay in series [5] (setting [6]) came out at 20.5 days. The “inhibition of tumor growth at end of dosing period” value in series [5] (combination PP242 50 mg/kg/d + IRES-J007 20 mg/kg/d, ten consecutive days) came to 93%. In addition, the “cyclin D1 and c-MYC protein levels in tumors” value in series [5] (combination therapy) is “Marked reductions”. Moreover, in series [5] (combination therapy, tumors harvested at day 12), the “TUNEL staining of tumor sections (apoptosis)” value was “significant staining”. In addition, the “tumor growth vs double vehicle controls” value in series [5] (monotherapy IRES-J007 20 mg/kg/d, ten consecutive days) was “did not differ significantly”. The “basal cyclin D1 IRES activity” value in the series with human cyclin D1 IRES is “reduced IRES activity”.
